Laboratory results reported in BindingDB's records for PubMed 35707152 (Max Planck Institute of Colloids and Interfaces, 2022).

Assays:
[1] = Binding affinity to N-terminal His-tagged DC-SIGN CRD (194 to 331 residues) (unknown origin) expressed in Escherichia coli BL21 assessed as dissociation constant by HSQC-NMR spectrum analysis
[2] = Binding affinity to DC-SIGN ECD (66 to 404 residue) (unknown origin) expressed in Escherichia coli BL21 assessed as dissociation constant by STD reporter assay based NMR spectroscopy analysis

SMILES	Kd [1]	Kd [2]
CCOC(=O)c1cc(=O)c2cccc(F)c2[nH]1	400 µM	500 µM
CN(C)C(=O)c1c[nH]c2ccc(F)cc2c1=O	–	2900 µM
O=C(O)c1c[nH]c2ccc(S(=O)(=O)N3CCCCC3)cc2c1=O	–	500 µM
O=c1c(S(=O)(=O)c2ccccc2)c[nH]c2cc(F)ccc12	–	1900 µM
CCOC(=O)c1cc(=O)c2cccc(C(=O)OCC)c2[nH]1	–	600 µM
O=C(O)c1cnc2ccccc2c1O	–	2200 µM

Stronger by Kd [2], values ahead:

Kd [1]	Kd [2]	SMILES
500 µM	400 µM	CN(C)C(=O)c1c[nH]c2cc(N(C)C)ccc2c1=O
–	300 µM	CCOC(=O)c1c[nH]c2ccc(N(C)C)cc2c1=O
400 µM	300 µM	CN(C)C(=O)c1c[nH]c2c(F)cccc2c1=O
–	300 µM	CN(C)C(=O)c1ccc2c(=O)c(S(=O)(=O)c3ccccc3)c[nH]c2c1
200 µM	200 µM	CCOC(=O)c1cnc2ccccc2c1O
–	100 µM	CCOC(=O)c1c[nH]c2c(C(=O)OCC)cccc2c1=O
